Measurements reported in US11377442B2, “Small molecule agonists and antagonists of NR2F6 activity” (ZANDER THERAPEUTICS, INC., priority 2016, dated 2022).
Like-named read-outs stand apart in the source and are kept apart here.

Key:
Assay type in all cases: cell-based
[1] = test system: Renilla; assay: Renilla signal in NR2F6 agonist screening, cmpd/DMSO; conditions: Renilla, F4
[2] = test system: HEK293 pGL4; assay: Firefly_pGL signal, cmpd/DMSO (pGL4 control cells); conditions: Homo sapiens
[3] = target: T1, NR2F6 LBD (Homo sapiens, UniProt P10588); assay: NR2F6 LBD transient transfection; conditions: LBD
T1 construct: expressed in transfected cells
T1 sequence (P10588 165-393 limits assumed): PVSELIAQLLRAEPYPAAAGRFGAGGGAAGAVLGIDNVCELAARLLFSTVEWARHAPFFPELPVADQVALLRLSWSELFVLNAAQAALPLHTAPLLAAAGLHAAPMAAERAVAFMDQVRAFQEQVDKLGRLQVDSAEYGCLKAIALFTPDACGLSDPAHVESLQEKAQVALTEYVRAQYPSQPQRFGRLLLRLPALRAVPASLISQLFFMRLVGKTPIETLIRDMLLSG
Method in brief: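 LBD-transfected cells treated at 40, 10, 2 and 0.5 μM (4 replicates); cytotoxicity measured in parallel, normalized to DMSO (0%) and zero signal (100%). Higher concentrations excluded where signal loss reflected toxicity.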

[4] = target: T2, NR2F6 (Homo sapiens, UniProt P10588); assay: NR2F6 agonist screening, Firefly signal cmpd/DMSO; conditions: for Activity, cmpd/DMSO: Table 31
T2 construct: expressed in transfected cells; also transient transfection
T2 sequence (P10588 1-404): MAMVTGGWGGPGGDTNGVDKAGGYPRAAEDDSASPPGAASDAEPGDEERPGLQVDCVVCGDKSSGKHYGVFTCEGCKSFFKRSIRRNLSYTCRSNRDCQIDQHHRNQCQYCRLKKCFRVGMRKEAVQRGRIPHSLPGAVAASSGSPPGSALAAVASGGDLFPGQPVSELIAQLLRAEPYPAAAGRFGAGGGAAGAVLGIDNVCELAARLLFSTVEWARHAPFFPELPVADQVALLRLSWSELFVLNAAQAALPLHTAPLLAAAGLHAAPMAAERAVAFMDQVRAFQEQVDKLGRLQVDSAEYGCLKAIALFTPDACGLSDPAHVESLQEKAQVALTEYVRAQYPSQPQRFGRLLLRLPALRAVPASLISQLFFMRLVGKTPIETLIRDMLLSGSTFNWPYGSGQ

[5] = read-out: Renilla, F4, cmpd/DMSO (mean)
[6] = 1% FBS, read-out: Renilla, F4, 1% FBS, cmpd/DMSO (mean)
[7] = 10% FBS, read-out: Renilla, F4, 10% FBS, cmpd/DMSO (mean)
[8] = HEK293, 0.5 uM, pGL4, read-out: Firefly pGL4, cmpd/DMSO (mean)
[9] = HEK293, 2 uM, pGL4, read-out: Firefly pGL4, cmpd/DMSO (mean)
[10] = HEK293, 10 uM, pGL4, read-out: Firefly pGL4, cmpd/DMSO (mean)
[11] = HEK293, 40 uM, pGL4, read-out: Firefly pGL4, cmpd/DMSO (mean)
[12] = HEK293, pGL4, 1% FBS, 0.5 uM, read-out: Firefly, pGL4, 1% FBS, cmpd/DMSO (mean)
[13] = HEK293, pGL4, 1% FBS, 2 uM, read-out: Firefly, pGL4, 1% FBS, cmpd/DMSO (mean)
[14] = HEK293, pGL4, 1% FBS, 10 uM, read-out: Firefly, pGL4, 1% FBS, cmpd/DMSO (mean)
[15] = HEK293, pGL4, 1% FBS, 40 uM, read-out: Firefly, pGL4, 1% FBS, cmpd/DMSO (mean)
[16] = HEK293, pGL4, 10% FBS, 0.5 uM, read-out: Firefly, pGL4, 10% FBS, cmpd/DMSO (mean)
[17] = HEK293, pGL4, 10% FBS, 2 uM, read-out: Firefly, pGL4, 10% FBS, cmpd/DMSO (mean)
[18] = HEK293, pGL4, 10% FBS, 10 uM, read-out: Firefly, pGL4, 10% FBS, cmpd/DMSO (mean)
[19] = HEK293, pGL4, 10% FBS, 40 uM, read-out: Firefly, pGL4, 10% FBS, cmpd/DMSO (mean)

O=S1(=O)C[C@H](N2CCCCC2)[C@@H](S(=O)(=O)c2cccs2)C1 [Compound D105]
fold induction at 0.5 µM [1, 5]: 1.1
fold induction at 2 µM [1, 5]: 1.2
fold induction at 10 µM [1, 5]: 1.7
fold induction at 40 µM [1, 5]: 0.7
fold induction at 0.5 µM [1, 6]: 1.1
fold induction at 2 µM [1, 6]: 1.2
fold induction at 10 µM [1, 6]: 2
fold induction at 40 µM [1, 6]: 1.6
fold induction at 0.5 µM [1, 7]: 1.1
fold induction at 2 µM [1, 7]: 1.2
fold induction at 10 µM [1, 7]: 2.1
fold induction at 40 µM [1, 7]: 2.6
fold induction at 0.5 µM [2, 8]: 1.2
fold induction at 2 µM [2, 9]: 1.9
fold induction at 10 µM [2, 10]: 3.8
fold induction at 40 µM [2, 11]: 0.7
fold induction at 0.5 µM [2, 12]: 1.4
fold induction at 2 µM [2, 13]: 1.2
fold induction at 10 µM [2, 14]: 2.6
fold induction at 40 µM [2, 15]: 1.1
fold induction at 0.5 µM [2, 16]: 1.3
fold induction at 2 µM [2, 17]: 1.6
fold induction at 10 µM [2, 18]: 2.6
fold induction at 40 µM [2, 19]: 1.7
Firefly LBD, cmpd/DMSO (mean) ([3]; 0.5 uM): 1.2
Firefly LBD, cmpd/DMSO (mean) ([3]; 2 uM): 1.8
Firefly LBD, cmpd/DMSO (mean) ([3]; 10 uM): 3.8
Firefly LBD, cmpd/DMSO (mean) ([3]; 40 uM): 0.7
Firefly F4, cmpd/DMSO (mean) ([4]; 0.5 uM): 1.1
Firefly F4, cmpd/DMSO (mean) ([4]; 2 uM): 2.4
Firefly F4, cmpd/DMSO (mean) ([4]; 10 uM): 5.5
Firefly F4, cmpd/DMSO (mean) ([4]; 40 uM): 0.9
F4, Firefly/Renilla for S/B(F4) > 3 ([4]; 1% FBS, 10 uM): 2.5
Firefly, F4/pGL4 for S/B(F4) > 3 ([4]; 1% FBS, 10 uM): 1.9
F4, Firefly/Renilla for S/B(F4) > 3 ([4]; 10% FBS, 10 uM): 4.3
Firefly, F4/pGL4 for S/B(F4) > 3 ([4]; 10% FBS, 10 uM): 3.4
F4, Firefly/Renilla for S/B(F4) > 3 ([4]; 10% FBS, 40 uM): 1.4
Firefly, F4/pGL4 for S/B(F4) > 3 ([4]; 10% FBS, 40 uM): 2.1
Firefly, F4, 1% FBS, cmpd/DMSO (mean) ([4]; 1% FBS, 0.5 uM): 1.5
Firefly, F4, 1% FBS, cmpd/DMSO (mean) ([4]; 1% FBS, 2 uM): 1.7
Firefly, F4, 1% FBS, cmpd/DMSO (mean) ([4]; 1% FBS, 10 uM): 4.9
Firefly, F4, 1% FBS, cmpd/DMSO (mean) ([4]; 1% FBS, 40 uM): 0.3
Firefly, F4, 10% FBS, cmpd/DMSO (mean) ([4]; 10% FBS, 0.5 uM): 1.0
Firefly, F4, 10% FBS, cmpd/DMSO (mean) ([4]; 10% FBS, 2 uM): 1.5
Firefly, F4, 10% FBS, cmpd/DMSO (mean) ([4]; 10% FBS, 10 uM): 8.9
Firefly, F4, 10% FBS, cmpd/DMSO (mean) ([4]; 10% FBS, 40 uM): 3.6
Activity, cmpd/DMSO [4]: 5.7

CC1CCN([C@H]2CS(=O)(=O)C[C@@H]2S(=O)(=O)c2cccs2)CC1 [Compound D106]
fold induction at 0.5 µM [1, 5]: 1
fold induction at 2 µM [1, 5]: 1.2
fold induction at 10 µM [1, 5]: 1.7
fold induction at 40 µM [1, 5]: 0.5
fold induction at 0.5 µM [1, 6]: 1.2
fold induction at 2 µM [1, 6]: 1.4
fold induction at 10 µM [1, 6]: 1.9
fold induction at 40 µM [1, 6]: 1.1
fold induction at 0.5 µM [1, 7]: 1.2
fold induction at 2 µM [1, 7]: 1.1
fold induction at 10 µM [1, 7]: 2
fold induction at 40 µM [1, 7]: 2
fold induction at 0.5 µM [2, 8]: 1.1
fold induction at 2 µM [2, 9]: 1.6
fold induction at 10 µM [2, 10]: 3.6
fold induction at 40 µM [2, 11]: 0.7
fold induction at 0.5 µM [2, 12]: 1.1
fold induction at 2 µM [2, 13]: 1.8
fold induction at 10 µM [2, 14]: 2.8
fold induction at 40 µM [2, 15]: 0.8
fold induction at 0.5 µM [2, 16]: 0.9
fold induction at 2 µM [2, 17]: 1.2
fold induction at 10 µM [2, 18]: 2.7
fold induction at 40 µM [2, 19]: 1.2
Firefly LBD, cmpd/DMSO (mean) ([3]; 0.5 uM): 1.2
Firefly LBD, cmpd/DMSO (mean) ([3]; 2 uM): 1.7
Firefly LBD, cmpd/DMSO (mean) ([3]; 10 uM): 4.0
Firefly LBD, cmpd/DMSO (mean) ([3]; 40 uM): 0.7
Firefly F4, cmpd/DMSO (mean) ([4]; 0.5 uM): 1.5
Firefly F4, cmpd/DMSO (mean) ([4]; 2 uM): 2.3
Firefly F4, cmpd/DMSO (mean) ([4]; 10 uM): 5.4
Firefly F4, cmpd/DMSO (mean) ([4]; 40 uM): 0.8
F4, Firefly/Renilla for S/B(F4) > 3 ([4]; 1% FBS, 10 uM): 2.5
Firefly, F4/pGL4 for S/B(F4) > 3 ([4]; 1% FBS, 10 uM): 1.7
F4, Firefly/Renilla for S/B(F4) > 3 ([4]; 10% FBS, 10 uM): 3.6
Firefly, F4/pGL4 for S/B(F4) > 3 ([4]; 10% FBS, 10 uM): 2.7
Firefly, F4, 1% FBS, cmpd/DMSO (mean) ([4]; 1% FBS, 0.5 uM): 0.9
Firefly, F4, 1% FBS, cmpd/DMSO (mean) ([4]; 1% FBS, 2 uM): 1.9
Firefly, F4, 1% FBS, cmpd/DMSO (mean) ([4]; 1% FBS, 10 uM): 4.6
Firefly, F4, 1% FBS, cmpd/DMSO (mean) ([4]; 1% FBS, 40 uM): 0.5
Firefly, F4, 10% FBS, cmpd/DMSO (mean) ([4]; 10% FBS, 0.5 uM): 1.6
Firefly, F4, 10% FBS, cmpd/DMSO (mean) ([4]; 10% FBS, 2 uM): 1.4
Firefly, F4, 10% FBS, cmpd/DMSO (mean) ([4]; 10% FBS, 10 uM): 7.1
Firefly, F4, 10% FBS, cmpd/DMSO (mean) ([4]; 10% FBS, 40 uM): 1.7
Activity, cmpd/DMSO [4]: 5.2

C[C@@H]1C[C@H](C)CN([C@H]2CS(=O)(=O)C[C@@H]2S(=O)(=O)c2cccs2)C1 [Compound D109]
fold induction at 0.5 µM [1, 5]: 1.1
fold induction at 2 µM [1, 5]: 1.2
fold induction at 10 µM [1, 5]: 1.6
fold induction at 40 µM [1, 5]: 0.5
fold induction at 0.5 µM [1, 6]: 1
fold induction at 2 µM [1, 6]: 1.3
fold induction at 10 µM [1, 6]: 1.7
fold induction at 40 µM [1, 6]: 1.1
fold induction at 0.5 µM [1, 7]: 1
fold induction at 2 µM [1, 7]: 1.2
fold induction at 10 µM [1, 7]: 1.9
fold induction at 40 µM [1, 7]: 2.4
fold induction at 0.5 µM [2, 8]: 1
fold induction at 2 µM [2, 9]: 1.6
fold induction at 10 µM [2, 10]: 3.6
fold induction at 40 µM [2, 11]: 0.5
fold induction at 0.5 µM [2, 12]: 1.2
fold induction at 2 µM [2, 13]: 1.3
fold induction at 10 µM [2, 14]: 2.1
fold induction at 40 µM [2, 15]: 1.1
fold induction at 0.5 µM [2, 16]: 1.4
fold induction at 2 µM [2, 17]: 1.2
fold induction at 10 µM [2, 18]: 2.2
fold induction at 40 µM [2, 19]: 1.1
Firefly LBD, cmpd/DMSO (mean) ([3]; 0.5 uM): 1.1
Firefly LBD, cmpd/DMSO (mean) ([3]; 2 uM): 2.1
Firefly LBD, cmpd/DMSO (mean) ([3]; 10 uM): 3.2
Firefly LBD, cmpd/DMSO (mean) ([3]; 40 uM): 0.2
Firefly F4, cmpd/DMSO (mean) ([4]; 0.5 uM): 1.3
Firefly F4, cmpd/DMSO (mean) ([4]; 2 uM): 2.3
Firefly F4, cmpd/DMSO (mean) ([4]; 10 uM): 4.2
Firefly F4, cmpd/DMSO (mean) ([4]; 40 uM): 0.4
F4, Firefly/Renilla for S/B(F4) > 3 ([4]; 1% FBS, 10 uM): 3.1
Firefly, F4/pGL4 for S/B(F4) > 3 ([4]; 1% FBS, 10 uM): 2.6
F4, Firefly/Renilla for S/B(F4) > 3 ([4]; 10% FBS, 10 uM): 3.3
Firefly, F4/pGL4 for S/B(F4) > 3 ([4]; 10% FBS, 10 uM): 3.0
F4, Firefly/Renilla for S/B(F4) > 3 ([4]; 10% FBS, 40 uM): 1.3
Firefly, F4/pGL4 for S/B(F4) > 3 ([4]; 10% FBS, 40 uM): 2.8
Firefly, F4, 1% FBS, cmpd/DMSO (mean) ([4]; 1% FBS, 0.5 uM): 1.5
Firefly, F4, 1% FBS, cmpd/DMSO (mean) ([4]; 1% FBS, 2 uM): 1.6
Firefly, F4, 1% FBS, cmpd/DMSO (mean) ([4]; 1% FBS, 10 uM): 5.5
Firefly, F4, 1% FBS, cmpd/DMSO (mean) ([4]; 1% FBS, 40 uM): 0.2
Firefly, F4, 10% FBS, cmpd/DMSO (mean) ([4]; 10% FBS, 0.5 uM): 1.3
Firefly, F4, 10% FBS, cmpd/DMSO (mean) ([4]; 10% FBS, 2 uM): 1.4
Firefly, F4, 10% FBS, cmpd/DMSO (mean) ([4]; 10% FBS, 10 uM): 6.5
Firefly, F4, 10% FBS, cmpd/DMSO (mean) ([4]; 10% FBS, 40 uM): 3.1
Activity, cmpd/DMSO [4]: 6.2
